The text below walks through data of ChEMBL document CHEMBL1145541 (J Med Chem, 2008).

Series [1] has as its target T1, Type-1 angiotensin II receptor A (Rattus norvegicus, UniProt P25095).
T1 sequence (P25095 whole entry): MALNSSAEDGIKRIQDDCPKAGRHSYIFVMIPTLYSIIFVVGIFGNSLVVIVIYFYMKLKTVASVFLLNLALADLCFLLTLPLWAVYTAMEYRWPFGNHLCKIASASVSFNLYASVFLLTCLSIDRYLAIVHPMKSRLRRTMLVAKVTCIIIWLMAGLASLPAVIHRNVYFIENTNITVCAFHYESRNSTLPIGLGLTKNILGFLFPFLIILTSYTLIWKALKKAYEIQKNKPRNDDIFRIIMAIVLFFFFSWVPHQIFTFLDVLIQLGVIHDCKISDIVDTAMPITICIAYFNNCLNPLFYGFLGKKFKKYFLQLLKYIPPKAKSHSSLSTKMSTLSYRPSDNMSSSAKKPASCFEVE
As to the kind of experiment: Displacement of [125I]Sar1,Ile8-Ang2 from AT1 receptor in Wistar rat hepatic membrane. It counts as cell membranes, Liver.

The nature of the next series: in vitro. The following applies: human, Caco-2.
Series [2] deals with T2, Type-1 angiotensin II receptor (Oryctolagus cuniculus, UniProt P34976).
T2 sequence (P34976 whole entry): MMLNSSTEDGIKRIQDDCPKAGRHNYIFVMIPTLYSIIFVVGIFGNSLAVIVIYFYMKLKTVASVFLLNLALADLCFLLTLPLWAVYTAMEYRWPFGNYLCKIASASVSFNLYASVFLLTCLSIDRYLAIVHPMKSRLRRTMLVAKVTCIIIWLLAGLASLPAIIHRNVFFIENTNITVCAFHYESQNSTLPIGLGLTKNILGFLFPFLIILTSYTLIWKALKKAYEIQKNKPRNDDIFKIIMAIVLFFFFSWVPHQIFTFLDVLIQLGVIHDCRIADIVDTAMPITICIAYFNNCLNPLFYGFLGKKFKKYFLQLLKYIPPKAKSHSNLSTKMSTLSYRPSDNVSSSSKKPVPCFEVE
As to the kind of experiment: Antagonist activity at AT1 receptor in Ang II-contracted rabbit aortic strips after 60 mins. The following applies: read-out: pA2 (converted).

Series [3] in a line: AUC in Sprague-Dawley rat at 5 mg/kg, iv. It counts as ADME, organism-based. Also on record: dose 5 mg/kg, route intravenous. The following applies: plasma.
Series [4] is described as follows: AUC in Sprague-Dawley rat at 15 mg/kg, po. The format is ADME, organism-based. Also on record: dose 15 mg/kg, route oral. As to conditions: plasma.
Series [5] is described as follows: Half life in Sprague-Dawley rat at 5 mg/kg, iv. It counts as ADME, organism-based. The following applies: in vivo. Also on record: dose 5 mg/kg, route intravenous.
Series [6] can be described thus: Half life in Sprague-Dawley rat at 15 mg/kg, po. As to conditions: in vivo. It counts as ADME, organism-based. Set-up: dose 15 mg/kg, route oral.
The nature of series [7]: Cmax in Sprague-Dawley rat at 5 mg/kg, iv. It counts as ADME, organism-based. The following applies: in vivo. Set-up: dose 5 mg/kg, route intravenous.
A short description of series [8]: Cmax in Sprague-Dawley rat at 15 mg/kg, po. It counts as ADME, organism-based. Also on record: dose 15 mg/kg, route oral. As to conditions: in vivo.
Series [9] in a line: Tmax in Sprague-Dawley rat at 15 mg/kg, po. The following applies: in vivo. The format is ADME, organism-based. Set-up: dose 15 mg/kg, route oral.
A short description of series [10]: Oral bioavailability in Sprague-Dawley rat at 15 mg/kg. It counts as ADME, organism-based. The following applies: in vivo.

Broadly, the IC50 is the midpoint of a concentration-inhibition curve. A low value points to greater potency in that assay. In general, Ki refers to the dissociation constant of the complex between target and ligand, obtained from inhibition or displacement. Higher therefore signals lower affinity. By Papp A→B is commonly meant the apparent permeability from the apical to the basolateral side of a cell layer. Usually AUC stands for concentration integrated over time. By half-life is commonly meant how long it takes for the measured level to halve. Read a high half-life as slow loss. The term Cmax denotes the peak of the concentration-time curve. As usually defined, the Tmax is the time at which the peak concentration occurs. What is called bioavailability is the share of a dose that reaches the circulation, judged against a reference dose that is usually intravenous. Lower therefore signals little systemic uptake.

Description for in vitro: Permeability from apical to basolateral side of human Caco-2 cell membrane

As for `CCCCn1c(=O)c2ccc(Cl)nc2n1Cc1ccc(-c2ccccc2-c2nnn[nH]2)cc1`, the half-inhibitory concentration (IC50) in series [1] worked out at 168 nM. That is a sub-micromolar value.
Same read-out and setting: the figure for `CCCn1c(=O)c2ccc(C)nc2n1Cc1ccc(-c2ccccc2-c2nnn[nH]2)cc1` is 291 nM.
Same read-out and setting: to `CCCCn1c(=O)c2ccccc2n1Cc1ccc(-c2ccccc2-c2nnn[nH]2)cc1` belongs 598 nM; to `O=C1c2cccnc2CN1Cc1ccc(-c2ccccc2-c2nn[nH]n2)cc1`, > 10000 nM.
The compound `CCCCN1C(=O)C2(CCCC2)C(=O)N1Cc1ccc(-c2ccccc2-c2nn[nH]n2)cc1` gave a Ki in series [1] of 25 nM. This lies in the double-digit nanomolar range.
In the case of `CCCCn1c(=O)c2ccc(OC)nc2n1Cc1ccc(-c2ccccc2-c2nnn[nH]2)cc1`, the IC50 in series [1] was found to be 258 nM.
`CCCn1c(=O)c2cccnc2n1Cc1ccc(-c2ccccc2-c2nnn[nH]2)cc1`: the IC50 in series [1] worked out at 108 nM.
On to `CCCCC1c2ncccc2C(=O)N1Cc1ccc(-c2ccccc2-c2nn[nH]n2)cc1` (centres undefined), for which the IC50 in series [1] came to 95 nM. In addition, the Papp A→B in the series “in vitro” is 5.6 ×10⁻⁶ cm/s.
Take `CCCCn1c(=O)c2cc(F)cnc2n1Cc1ccc(-c2ccccc2-c2nnn[nH]2)cc1`: the IC50 in series [1] worked out at 70 nM. This lies in the double-digit nanomolar range.
On the same count and under the same terms, to `CCCc1nc2c(C)cc(C)nc2n1Cc1ccc(-c2ccccc2-c2nn[nH]n2)cc1` belongs 0.8 nM.
Same read-out and setting: the figure for `CC(C)CCn1c(=O)c2cccnc2n1Cc1ccc(-c2ccccc2-c2nnn[nH]2)cc1` is 124 nM.
Same read-out and setting: the figure for `CCCCn1c2nc(Cl)ccc2c(=O)n1Cc1ccc(-c2ccccc2-c2nn[nH]n2)cc1` is 461 nM; for `CCCCn1c(=O)c2ccc(C)nc2n1Cc1ccc(-c2ccccc2-c2nnn[nH]2)cc1` it is 81 nM.
As to `CCCCN1C(=O)CC2(CCCC2)C(=O)N1Cc1ccc(-c2ccccc2-c2nn[nH]n2)cc1`, in series [1], the affinity corresponds to a Ki of 14 nM.
`CCCCn1c2ncccc2c(=O)n1Cc1ccc(-c2ccccc2-c2nnn[nH]2)cc1`: in series [1], the IC50 was determined as 39 nM. For the same compound, the Papp A→B in “in vitro” was determined as 3.6 ×10⁻⁶ cm/s. For the same compound, the Kb in series [2] is 14.8 nM.
In the case of `CCCN1C(=O)c2cccnc2C1Cc1ccc(-c2ccccc2-c2nn[nH]n2)cc1` (centres undefined), the IC50 in series [1] was > 3000 nM.
Same read-out and setting: the figure for `CCCCn1c(=O)c2ccc(NC)nc2n1Cc1ccc(-c2ccccc2-c2nn[nH]n2)cc1` is 124 nM.
On the same count and under the same terms, the figure for `CCCCn1c(=O)c2cc(F)c(Cl)nc2n1Cc1ccc(-c2ccccc2-c2nnn[nH]2)cc1` is 427 nM; for `CCC1c2ncccc2C(=O)N1Cc1ccc(-c2ccccc2-c2nn[nH]n2)cc1` (centres undefined) it is > 10000 nM.
In turn, `CCCCN1C(=O)C2(CCCC2)CC(=O)N1Cc1ccc(-c2ccccc2-c2nnn[nH]2)cc1` had a Ki in series [1] of 80 nM.
Compound `CCCCn1c(=O)c2cccnc2n1Cc1ccc(-c2ccccc2-c2nn[nH]n2)cc1` showed an IC50 in series [1] of 18 nM. Further, the results for the AUC in [3] and in series [4] were 1410 ng·h/mL and 3380 ng·h/mL, respectively. The figures for the half-life in [5] and in [6] were 60 min and 54 min, respectively. The Cmax is 6320 ng/mL in series [7] and 4100 ng/mL in series [8]. The Tmax in [9] stood at 30 min. This compound also had a bioavailability in series [10] of 80%. The same compound yielded a Papp A→B in “in vitro” of 1.78 ×10⁻⁶ cm/s. The Kb in series [2] was 10.5 nM.
In [1], `CC(C)Cn1c(=O)c2cccnc2n1Cc1ccc(-c2ccccc2-c2nn[nH]n2)cc1` displayed an IC50 of 2300 nM.
In [1], `CCn1c(=O)c2ccc(C)nc2n1Cc1ccc(-c2ccccc2-c2nnn[nH]2)cc1` gave an IC50 of 1870 nM.
In series [1], `CCCn1nc(OCc2ccc(-c3ccccc3-c3nnn[nH]3)cc2)c2cccnc21` gave an IC50 of 146 nM. This IC50 lies about 13-fold lower than the previous one.
Same read-out and setting: to `CCCC1c2ncccc2C(=O)N1Cc1ccc(-c2ccccc2-c2nn[nH]n2)cc1` (centres undefined) belongs 154 nM.
`CCCCn1c2nc(C)ccc2c(=O)n1Cc1ccc(-c2ccccc2-c2nn[nH]n2)cc1` had an IC50 in [1] of 90 nM. Also, in “in vitro”, the Papp A→B came out at 8.7 ×10⁻⁶ cm/s.
`CCCCn1nc(OCc2ccc(-c3ccccc3-c3nn[nH]n3)cc2)c2cccnc2c1=O` showed an IC50 in series [1] of 114 nM.
On the same count and under the same terms, to `CCCCn1nc(OCc2ccc(-c3ccccc3-c3nnn[nH]3)cc2)c2cccnc21` belongs 254 nM; to `CCCCCn1c(=O)c2cccnc2n1Cc1ccc(-c2ccccc2-c2nnn[nH]2)cc1`, 53 nM; to `CCc1nc2c(C)cc(C)nc2n1Cc1ccc(-c2c(-c3nnn[nH]3)cnc3ccccc23)cc1`, 6.9 nM.
Still for that read-out and setting: the figure for `CCCCn1c(=O)c2ccc(N3CCOCC3)nc2n1Cc1ccc(-c2ccccc2-c2nnn[nH]2)cc1` is 600 nM.
Consider `CCCCn1c(=O)c2cc(Cl)cnc2n1Cc1ccc(-c2ccccc2-c2nnn[nH]2)cc1`, for which the concentration for half-maximal inhibition (IC50) in [1] is 76 nM. The compound further returned a Papp A→B in the series “in vitro” of 10.8 ×10⁻⁶ cm/s.
Regarding `O=c1c2cccnc2n(Cc2ccc(-c3ccccc3-c3nn[nH]n3)cc2)n1Cc1ccccc1`, the IC50 in series [1] was > 3000 nM.
For `CCc1nc2c(C)cc(C)nc2n1Cc1ccc(-c2ccccc2-c2nnn[nH]2)cc1` [L-158809], in series [1], the IC50 came out at 0.4 nM.
